The cell lines below were run with N#CC1(c2ccc(NC(=O)c3cccnc3NCc3ccncc3)cc2)CCCC1 [Apatinib] + Cc1nc(NC(=O)N2CCC[C@H]2C(N)=O)sc1-c1ccnc(C(C)(C)C(F)(F)F)c1 [Alpelisib] (partner 2 µM) (assay: relative viability (nuclei count vs DMSO), 5 days (fraction); higher = more cells survive). Conditions: first compound 0.08 µM.
Procedure, shortened: (§1)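 Dosing by pin tool came one day after lung cancer cell lines were seeded in 1536-well plates, using either one drug or a fixed anchor-drug dose plus five library-drug doses (not always all listed) in √10 steps. After 5 days, nuclei were counted on 4× images. Relative viability is treated-well nuclei count divided by vehicle-well nuclei count, and values are medians of duplicate plates.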
With NCI-H2085 the relative viability was 1.05. In the case of NCI-H2087, the relative viability is reported as 1.19. With NCI-H2126 the relative viability was 0.818. NCI-H2170 showed a relative viability of 0.884. With NCI-H2347 the relative viability was 0.943. Work on NCI-H2405 yielded a relative viability of 0.855. NCI-H3122 gave a relative viability of 0.781. PC-3 [JPC-3] showed a relative viability of 1. PC-14 was tested, and the relative viability was 0.935. For RERF-LC-KJ, the relative viability was 0.857.

Same assay, conditions: first compound 0.253 µM
Cell Line NCI-H2085 has a relative viability of 0.931. Work on NCI-H2087 yielded a relative viability of 1.07. With NCI-H2126 the relative viability was 0.761. Work on NCI-H2170 yielded a relative viability of 0.776. NCI-H2347 was tested, and the relative viability was 1.02. Cell Line NCI-H2405 has a relative viability of 1.1. In the case of NCI-H3122, the relative viability is reported as 0.796. Work on PC-3 [JPC-3] yielded a relative viability of 0.996. Work on PC-14 yielded a relative viability of 0.861. Cell Line RERF-LC-KJ has a relative viability of 0.875.

Same assay, conditions: first compound 0.8 µM
For NCI-H2085, the relative viability was 0.931. With NCI-H2087 the relative viability was 1.03. Work on NCI-H2126 yielded a relative viability of 0.758. Work on NCI-H2170 yielded a relative viability of 0.8. With NCI-H2347 the relative viability was 1. NCI-H2405 gave a relative viability of 0.91. With NCI-H3122 the relative viability was 0.822. Work on PC-3 [JPC-3] yielded a relative viability of 0.989. PC-14 showed a relative viability of 0.876. RERF-LC-KJ was tested, and the relative viability was 0.779.

Same assay, conditions: first compound 2.53 µM
For NCI-H2085, the relative viability was 0.858. NCI-H2087 gave a relative viability of 0.904. Cell Line NCI-H2126 has a relative viability of 0.743. NCI-H2170 showed a relative viability of 0.743. NCI-H2347 was tested, and the relative viability was 1.02. Work on NCI-H2405 yielded a relative viability of 0.841. NCI-H3122 showed a relative viability of 0.761. Work on PC-3 [JPC-3] yielded a relative viability of 0.938. PC-14 showed a relative viability of 0.875. In the case of RERF-LC-KJ, the relative viability is reported as 0.751.

Same assay, conditions: first compound 8 µM
NCI-H2085 gave a relative viability of 0.792. NCI-H2087 gave a relative viability of 0.666. With NCI-H2126 the relative viability was 0.767. With NCI-H2170 the relative viability was 0.706. NCI-H2347 gave a relative viability of 0.944. NCI-H2405 showed a relative viability of 0.81. NCI-H3122 gave a relative viability of 0.714. Work on PC-3 [JPC-3] yielded a relative viability of 0.888. In the case of PC-14, the relative viability is reported as 0.838. In the case of RERF-LC-KJ, the relative viability is reported as 0.823.

The cell lines below were run with CN(C)C(=N)NC(=N)N [Metformin] + COc1cc2c(Oc3ccc(NC(=O)C4(C(=O)Nc5ccc(F)cc5)CC4)cc3F)ccnc2cc1OCCCN1CCOCC1 [Foretinib] (partner 0.25 µM) in the same assay as above. Conditions: first compound 10 µM.
Procedure, shortened: as §1
NCI-H2085 gave a relative viability of 0.854. Cell Line NCI-H2126 has a relative viability of 1.12. NCI-H2170 showed a relative viability of 0.951. Cell Line NCI-H2347 has a relative viability of 0.844. Work on NCI-H2405 yielded a relative viability of 0.936. NCI-H3122 was tested, and the relative viability was 0.946. Cell Line PC-3 [JPC-3] has a relative viability of 0.808. For PC-14, the relative viability was 0.795. RERF-LC-KJ was tested, and the relative viability was 0.775.

Same assay, conditions: first compound 31.62 µM
NCI-H2085 gave a relative viability of 0.892. For NCI-H2087, the relative viability was 0.966. In the case of NCI-H2126, the relative viability is reported as 1.18. NCI-H2170 was tested, and the relative viability was 1.02. Work on NCI-H2347 yielded a relative viability of 0.578. NCI-H2405 was tested, and the relative viability was 1.06. Cell Line NCI-H3122 has a relative viability of 0.951. With PC-3 [JPC-3] the relative viability was 0.945. In the case of PC-14, the relative viability is reported as 1.08. For RERF-LC-KJ, the relative viability was 0.796.

Same assay, conditions: first compound 100 µM
NCI-H2085 gave a relative viability of 0.865. Work on NCI-H2087 yielded a relative viability of 1.12. NCI-H2126 was tested, and the relative viability was 1.22. NCI-H2170 was tested, and the relative viability was 0.915. Cell Line NCI-H2347 has a relative viability of 0.784. NCI-H2405 showed a relative viability of 1.11. NCI-H3122 was tested, and the relative viability was 0.944. PC-3 [JPC-3] was tested, and the relative viability was 0.996. PC-14 gave a relative viability of 0.879. Cell Line RERF-LC-KJ has a relative viability of 0.804.

Same assay, conditions: first compound 316.23 µM
Cell Line NCI-H2085 has a relative viability of 1.04. Work on NCI-H2087 yielded a relative viability of 0.891. NCI-H2126 showed a relative viability of 0.862. In the case of NCI-H2170, the relative viability is reported as 0.95. In the case of NCI-H2347, the relative viability is reported as 0.885. NCI-H2405 showed a relative viability of 1.01. In the case of NCI-H3122, the relative viability is reported as 0.806. PC-3 [JPC-3] gave a relative viability of 0.93. Cell Line PC-14 has a relative viability of 0.932. With RERF-LC-KJ the relative viability was 0.763.

Same assay, conditions: first compound 1000 µM
NCI-H2085 gave a relative viability of 1.19. Cell Line NCI-H2087 has a relative viability of 1.06. NCI-H2126 gave a relative viability of 1.15. For NCI-H2170, the relative viability was 0.965. In the case of NCI-H2347, the relative viability is reported as 0.459. For NCI-H2405, the relative viability was 1.09. Work on NCI-H3122 yielded a relative viability of 0.919. With PC-3 [JPC-3] the relative viability was 0.946. PC-14 gave a relative viability of 1. In the case of RERF-LC-KJ, the relative viability is reported as 0.935.

These cell lines were tested with CN(C)C(=N)NC(=N)N [Metformin] + Cc1cc(Nc2cc(N3CCN(C)CC3)nc(Sc3ccc(NC(=O)C4CC4)cc3)n2)n[nH]1 [Tozasertib] (partner 0.1 µM) in the same assay as above. Conditions: first compound 10 µM.
Procedure, shortened: as §1
With NCI-H2085 the relative viability was 0.85. Cell Line NCI-H2126 has a relative viability of 0.764. NCI-H2170 gave a relative viability of 0.731. With NCI-H2347 the relative viability was 0.627. NCI-H2405 was tested, and the relative viability was 0.701. Cell Line NCI-H3122 has a relative viability of 0.248. Cell Line PC-3 [JPC-3] has a relative viability of 0.772. Work on PC-14 yielded a relative viability of 0.618. Work on RERF-LC-KJ yielded a relative viability of 0.329.

Same assay, conditions: first compound 31.62 µM
In the case of NCI-H2085, the relative viability is reported as 0.746. With NCI-H2087 the relative viability was 0.281. Work on NCI-H2126 yielded a relative viability of 0.834. NCI-H2170 gave a relative viability of 0.733. NCI-H2347 gave a relative viability of 0.51. Work on NCI-H2405 yielded a relative viability of 0.732. With NCI-H3122 the relative viability was 0.31. Cell Line PC-3 [JPC-3] has a relative viability of 0.811. PC-14 showed a relative viability of 0.714. RERF-LC-KJ gave a relative viability of 0.273.

Same assay, conditions: first compound 100 µM
NCI-H2085 gave a relative viability of 0.896. Cell Line NCI-H2087 has a relative viability of 0.246. Work on NCI-H2126 yielded a relative viability of 0.824. For NCI-H2170, the relative viability was 0.779. NCI-H2405 was tested, and the relative viability was 0.801. Cell Line NCI-H3122 has a relative viability of 0.388. For PC-3 [JPC-3], the relative viability was 0.853. For PC-14, the relative viability was 0.673. RERF-LC-KJ gave a relative viability of 0.403.

Same assay, conditions: first compound 316.23 µM
With NCI-H2085 the relative viability was 0.773. In the case of NCI-H2087, the relative viability is reported as 0.253. Work on NCI-H2126 yielded a relative viability of 0.525. For NCI-H2170, the relative viability was 0.758. In the case of NCI-H2347, the relative viability is reported as 0.492. NCI-H2405 gave a relative viability of 0.763. Cell Line NCI-H3122 has a relative viability of 0.255. With PC-3 [JPC-3] the relative viability was 0.779. In the case of PC-14, the relative viability is reported as 0.674. For RERF-LC-KJ, the relative viability was 0.277.

Same assay, conditions: first compound 1000 µM
Work on NCI-H2085 yielded a relative viability of 0.841. With NCI-H2087 the relative viability was 0.245. For NCI-H2126, the relative viability was 0.53. In the case of NCI-H2170, the relative viability is reported as 0.693. Cell Line NCI-H2347 has a relative viability of 0.63. Cell Line NCI-H2405 has a relative viability of 0.716. Work on NCI-H3122 yielded a relative viability of 0.209. PC-3 [JPC-3] was tested, and the relative viability was 0.825. PC-14 gave a relative viability of 0.814. With RERF-LC-KJ the relative viability was 0.352.

These cell lines were tested with CN(C)C(=N)NC(=N)N [Metformin] + NC(=O)Nc1cc(-c2cccc(F)c2)sc1C(=O)N[C@H]1CCCNC1 [AZD7762] (partner 0.2 µM) in the same assay as above. Conditions: first compound 10 µM.
Procedure, shortened: as §1
Cell Line NCI-H2085 has a relative viability of 0.873. For NCI-H2087, the relative viability was 1.3. NCI-H2126 was tested, and the relative viability was 0.953. With NCI-H2170 the relative viability was 0.74. NCI-H2347 gave a relative viability of 0.662. NCI-H3122 was tested, and the relative viability was 0.867. PC-3 [JPC-3] showed a relative viability of 0.916. Cell Line PC-14 has a relative viability of 0.31. RERF-LC-KJ was tested, and the relative viability was 0.703.

Same assay, conditions: first compound 31.62 µM
Cell Line NCI-H2085 has a relative viability of 0.99. NCI-H2087 was tested, and the relative viability was 1.21. NCI-H2126 was tested, and the relative viability was 0.963. NCI-H2170 gave a relative viability of 0.836. Cell Line NCI-H2347 has a relative viability of 0.892. NCI-H2405 was tested, and the relative viability was 0.866. NCI-H3122 gave a relative viability of 0.881. For PC-3 [JPC-3], the relative viability was 1.12. PC-14 was tested, and the relative viability was 0.343. Cell Line RERF-LC-KJ has a relative viability of 0.927.

Same assay, conditions: first compound 100 µM
For NCI-H2085, the relative viability was 0.979. With NCI-H2087 the relative viability was 1.12. NCI-H2126 was tested, and the relative viability was 0.916. NCI-H2170 gave a relative viability of 0.869. NCI-H2347 gave a relative viability of 0.856. Cell Line NCI-H2405 has a relative viability of 0.831. NCI-H3122 showed a relative viability of 0.984. Work on PC-14 yielded a relative viability of 0.383. RERF-LC-KJ gave a relative viability of 0.572.

Same assay, conditions: first compound 316.23 µM
With NCI-H2085 the relative viability was 0.893. NCI-H2087 was tested, and the relative viability was 1.11. For NCI-H2126, the relative viability was 0.92. NCI-H2170 was tested, and the relative viability was 0.745. NCI-H2347 showed a relative viability of 0.771. Work on NCI-H2405 yielded a relative viability of 0.722. NCI-H3122 showed a relative viability of 0.845. In the case of PC-3 [JPC-3], the relative viability is reported as 0.798. PC-14 showed a relative viability of 0.304. RERF-LC-KJ showed a relative viability of 0.799.

Same assay, conditions: first compound 1000 µM
For NCI-H2085, the relative viability was 0.989. NCI-H2087 showed a relative viability of 1.39. With NCI-H2126 the relative viability was 0.935. Work on NCI-H2170 yielded a relative viability of 0.913. NCI-H2347 showed a relative viability of 0.862. Cell Line NCI-H2405 has a relative viability of 0.515. For NCI-H3122, the relative viability was 0.809. For PC-3 [JPC-3], the relative viability was 0.651. Cell Line PC-14 has a relative viability of 0.392. RERF-LC-KJ gave a relative viability of 1.
